Data taken from ChEMBL document CHEMBL1140849, “Selective small molecule inhibitors of the potential breast cancer marker, human arylamine N-acetyltransferase 1, and its murine homologue, mouse arylamine N-acetyltransferase 2” (Bioorg Med Chem, 2009).
The source made the active and inactive calls. The rule behind the calls is not given here.

What was measured:
[1] = target: T1, Arylamine N-acetyltransferase 2 (Mus musculus, UniProt P50295); assay: Inhibition of mouse recombinant NAT2 assessed as hydrolysis of acetyl coA using PABA as substrate by Ellman's method
T1 sequence (P50295 whole entry): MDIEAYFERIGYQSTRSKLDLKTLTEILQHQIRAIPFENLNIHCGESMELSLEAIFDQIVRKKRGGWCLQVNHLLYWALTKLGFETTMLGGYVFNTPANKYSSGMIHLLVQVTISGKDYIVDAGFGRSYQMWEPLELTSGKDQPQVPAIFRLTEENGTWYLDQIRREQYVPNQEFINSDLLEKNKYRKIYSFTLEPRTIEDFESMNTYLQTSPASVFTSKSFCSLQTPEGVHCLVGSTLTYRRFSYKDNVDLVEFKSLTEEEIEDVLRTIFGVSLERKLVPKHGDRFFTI

Mycobacterium marinum [2] = assay: Inhibition of Mycobacterium marinum recombinant NAT using isoniazid as substrate at 30 uM
[3] = target: T2, Arylamine N-acetyltransferase (Pseudomonas aeruginosa (strain ATCC 15692 / PAO1 / 1C / PRS 101 / LMG12228), UniProt Q9HUY3); conditions: read-out: INH
T2 sequence (Q9HUY3 whole entry): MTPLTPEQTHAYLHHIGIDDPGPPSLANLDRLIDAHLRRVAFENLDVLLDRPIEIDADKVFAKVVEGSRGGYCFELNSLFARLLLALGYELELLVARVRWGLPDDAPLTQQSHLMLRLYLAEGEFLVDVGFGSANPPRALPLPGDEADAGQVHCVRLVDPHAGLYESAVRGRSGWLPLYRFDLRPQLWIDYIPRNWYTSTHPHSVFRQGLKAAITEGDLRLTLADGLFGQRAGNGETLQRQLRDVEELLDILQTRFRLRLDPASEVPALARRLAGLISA
Description: Inhibition of Pseudomonas aeruginosa recombinant NAT using isoniazid as substrate at 30 uM

[4] = Cytotoxicity against mouse macrophage at 10 ug/ml after 72 hrs by trypan blue exclusion method; assay type: cell-based
[5] = target: T3, Arylamine N-acetyltransferase 1 (Homo sapiens, UniProt P18440); assay: Inhibition of human recombinant NAT1 assessed as hydrolysis of acetyl coA using PABA as substrate by Ellman's method
T3 sequence (P18440 whole entry): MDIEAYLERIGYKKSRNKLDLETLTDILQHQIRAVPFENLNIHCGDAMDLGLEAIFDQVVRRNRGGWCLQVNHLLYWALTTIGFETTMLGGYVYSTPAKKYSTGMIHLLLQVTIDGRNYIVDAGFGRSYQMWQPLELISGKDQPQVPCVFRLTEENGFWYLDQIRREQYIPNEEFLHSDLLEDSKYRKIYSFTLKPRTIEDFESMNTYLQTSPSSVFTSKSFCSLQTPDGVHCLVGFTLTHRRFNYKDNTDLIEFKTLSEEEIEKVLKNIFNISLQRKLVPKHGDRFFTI

Mycobacterium marinum [6] = conditions: 30 uM
Description: Inhibition of Mycobacterium marinum recombinant NAT using 5-aminosalicylic acid as substrate at 30 uM

[7] = target: T4, Arylamine N-acetyltransferase 2 (NAT2) (Homo sapiens, UniProt P11245); assay: Inhibition of human recombinant NAT2 using 5-aminosalicylic acid as substrate at 30 uM; conditions: recombinant NAT2, probe 5-aminosalicylic acid
T4 sequence (P11245 whole entry): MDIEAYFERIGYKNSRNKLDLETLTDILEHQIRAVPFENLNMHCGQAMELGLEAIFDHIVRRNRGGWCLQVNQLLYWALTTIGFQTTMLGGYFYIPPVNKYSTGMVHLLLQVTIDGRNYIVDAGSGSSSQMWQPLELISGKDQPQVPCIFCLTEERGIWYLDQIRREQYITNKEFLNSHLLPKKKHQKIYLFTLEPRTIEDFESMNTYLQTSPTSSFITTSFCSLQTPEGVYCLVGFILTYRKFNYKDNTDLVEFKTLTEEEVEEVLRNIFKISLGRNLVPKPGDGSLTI

ZR75 = assay: Inhibition of NAT in human ZR75 cell lysate assessed as acetylation of aryl amine using PABA as substrate at 30 uM; assay type: cell-free
[8] = target: T5, Arylamine N-acetyltransferase 2 (NAT2) (Mus musculus, UniProt P50295); assay: Inhibition of mouse recombinant NAT2 using 5-aminosalicylic acid as substrate at 30 uM; conditions: recombinant NAT2, probe 5-aminosalicylic acid
T5 sequence (P50295 whole entry): T1 sequence (P50295 whole entry)

[9] = target: T2, Arylamine N-acetyltransferase; assay: Inhibition of Pseudomonas aeruginosa recombinant NAT using 5-aminosalicylic acid as substrate at 30 uM; conditions: read-out: INH
[10] = target: T1, Arylamine N-acetyltransferase 2; assay: Inhibition of mouse recombinant NAT2 using PABA as substrate at 30 uM

## O=C1NC(=S)S/C1=C\c1cccc2ccccc12
[1]
  IC50: > 30 µM

## CCCCCCCCC/C=C1\SC(=S)NC1=O
[1]
  IC50: 10.2 µM

## O=C1NC(=S)S/C1=C\c1ccccc1O
Mycobacterium marinum [2]
  inhibition: < 40%
[3]
  inhibition at 30 µM: < 40%
[4]
  Activity: < 80%

## CN1C(=O)/C(=C/c2cccc(F)c2)SC1=S
[1]
  IC50: 7.3 µM

## COc1cccc(/C=C2\SC(=S)N(C)C2=O)c1
[1]
  IC50: 13.6 µM

## O=C1NC(=S)S/C1=C\Cc1ccccc1
[1]
  IC50: 24.2 µM

## Cc1ccccc1/C=C1\SC(=S)NC1=O
[3]
  inhibition at 30 µM: < 40%

## O=C1NC(=S)S/C1=C\c1ccccc1F
[1]
  IC50: > 30 µM

## CN1C(=O)/C(=C/c2cccc3ccccc23)SC1=S
[1]
  IC50: > 30 µM

## NN1C(=O)/C(=C/c2ccc(Cl)cc2)SC1=S
[1]
  IC50: 5.7 µM

## CN1C(=O)/C(=C/c2ccc3ccccc3c2)SC1=S
[1]
  IC50: 4.7 µM

## O=C1NC(=S)S/C1=C\c1ccc(-c2ccccc2)cc1
Mycobacterium marinum [2]
  inhibition: < 40%
[3]
  inhibition at 30 µM: < 40%

## NN1C(=O)/C(=C/c2cc(I)c(O)c(I)c2)SC1=S
[4]
  Activity: < 80%

## COc1ccc(/C=C2\SC(=S)N(C)C2=O)cc1
[1]
  IC50: 1 µM

## CN1C(=O)/C(=C/c2ccc(O)cc2)SC1=S
[1]
  IC50: 14 µM

## Cc1ccc(/C=C2\SC(=S)NC2=O)cc1
[5]
  IC50: > 30 µM
[3]
  inhibition at 30 µM: < 40%

## O=C1NC(=S)S/C1=C\c1cc(I)c(O)c(I)c1
Mycobacterium marinum [2]
  inhibition: < 40%
Mycobacterium marinum [6]
  inhibition: 40%
[7]
  inhibition at 30 µM: 46%
ZR75
  Activity: Active
[3]
  inhibition at 30 µM: < 40%
[8]
  inhibition at 30 µM: 104%
[4]
  Activity: > 80%
[9]
  inhibition at 30 µM: 52%
[10]
  Activity: Active

## CN1C(=O)/C(=C/c2ccccc2)SC1=S
[1]
  IC50: > 30 µM

## NN1C(=O)/C(=C/c2ccc(O)cc2)SC1=S
[1]
  IC50: 10.1 µM

## CCC/C=C1\SC(=S)NC1=O
[1]
  IC50: 7.7 µM

## CN1C(=O)/C(=C/Cc2ccccc2)SC1=S
[1]
  IC50: > 30 µM

## C/C(=C1/SC(=S)N(C)C1=O)c1ccccc1
[1]
  IC50: > 30 µM

## CN1C(=O)/C(=C/c2ccccc2F)SC1=S
[1]
  IC50: 11.8 µM

## COc1ccccc1/C=C1\SC(=S)NC1=O
Mycobacterium marinum [2]
  inhibition: < 40%
[5]
  IC50: 17.6 µM
[3]
  inhibition at 30 µM: < 40%

## O=C1NC(=S)S/C1=C\c1cccc(F)c1
[1]
  IC50: 6.7 µM

## Cc1cccc(/C=C2\SC(=S)NC2=O)c1
Mycobacterium marinum [2]
  inhibition: < 40%
[3]
  inhibition at 30 µM: < 40%

## C/C(=C1/SC(=S)NC1=O)c1ccccc1
[1]
  IC50: 25 µM

## O=C1NC(=S)S/C1=C\c1ccc(O)cc1
Mycobacterium marinum [2]
  inhibition: < 40%
[5]
  IC50: 16.9 µM
[3]
  inhibition at 30 µM: < 40%

## NN1C(=O)/C(=C/c2ccccc2-c2ccccc2)SC1=S
[1]
  IC50: 0.3 µM
[4]
  Activity: < 80%

## CN1C(=O)/C(=C/c2ccccc2O)SC1=S
[1]
  IC50: 20.1 µM

## O=C1NC(=S)S/C1=C\c1cccc(O)c1
Mycobacterium marinum [2]
  inhibition: < 40%
[3]
  inhibition at 30 µM: < 40%
[4]
  Activity: < 80%

## Cc1ccc(/C=C2\SC(=S)N(C)C2=O)cc1
[1]
  IC50: > 30 µM

## COc1ccccc1/C=C1\SC(=S)N(C)C1=O
[1]
  IC50: > 30 µM

## O=C1NC(=S)S/C1=C\c1ccccc1-c1ccccc1
[1]
  IC50: 16.5 µM

## NN1C(=O)/C(=C/c2ccccc2O)SC1=S
[1]
  IC50: 5.1 µM
[4]
  Activity: < 80%

## Cc1cccc(/C=C2\SC(=S)N(C)C2=O)c1
[1]
  IC50: > 30 µM

## O=C1NC(=S)S/C1=C\c1ccc(Cl)cc1
Mycobacterium marinum [2]
  inhibition: < 40%
[5]
  IC50: 4.7 µM
[3]
  inhibition at 30 µM: < 40%

## O=C1NC(=S)S/C1=C\c1ccc2ccccc2c1
[1]
  IC50: 26.9 µM

## CN1C(=O)/C(=C/c2ccc(-c3ccccc3)cc2)SC1=S
[1]
  IC50: 5.5 µM

## O=C1NC(=S)S/C1=C\c1ccc(Cl)c(Cl)c1
Mycobacterium marinum [2]
  inhibition: < 40%
[3]
  inhibition at 30 µM: < 40%

## CN1C(=O)/C(=C/c2ccc(Cl)cc2)SC1=S
[1]
  IC50: 9.4 µM

## CCCCCCC/C=C1\SC(=S)NC1=O
[1]
  IC50: 6.8 µM

## COc1ccc(/C=C2\SC(=S)NC2=O)cc1
Mycobacterium marinum [2]
  inhibition: < 40%
[5]
  IC50: > 30 µM
[3]
  inhibition at 30 µM: < 40%

## O=C1NC(=O)/C(=C/c2ccc3ccccc3c2)S1
[1]
  IC50: > 30 µM

## O=C1NC(=S)S/C1=C\c1ccc(F)cc1
Mycobacterium marinum [2]
  inhibition: < 40%
[5]
  IC50: 12.9 µM
[3]
  inhibition at 30 µM: < 40%

## CN1C(=O)/C(=C/c2ccc(F)cc2)SC1=S
[1]
  IC50: 20.7 µM

## COc1cccc(/C=C2\SC(=S)NC2=O)c1
Mycobacterium marinum [2]
  inhibition: < 40%
[5]
  IC50: > 30 µM
[3]
  inhibition at 30 µM: < 40%

## O=C1NC(=S)S/C1=C\c1ccc(Br)cc1
[1]
  IC50: > 30 µM

## Cc1ccccc1/C=C1\SC(=S)N(C)C1=O
[1]
  IC50: 4.4 µM

## CCCCC/C=C1\SC(=S)NC1=O
[1]
  IC50: 1.3 µM

## CN1C(=O)/C(=C/c2ccccc2-c2ccccc2)SC1=S
[1]
  IC50: 10.1 µM
